From patent US7074819B2, “Benzopyran or thiobenzopyran derivatives” (Chugai Seiyaku Kabushiki Kaisha, priority 1998, dated 2006) come the findings set out here.

Read-outs that look alike come from different tables or passages of the source.

One assay concerns MCF-7 cell lines (ATCC). Put plainly: Cell growth inhibiting activity (MTT, with 0.1 nM estradiol, 7 days). The assay is classed as cell-based. Particulars: MCF-7 cells, read-out: IC50 value for inhibiting cell growth of 50%. How it is done:
In this experiment, the cell growth inhibiting activity was determined by using the compounds of Examples 1, 2, 3, 5, 22, 127 and 128 as the test compound and the known anti-estrogenic compound […] having the following structure (see, EP0124369 B1) as the control compound, according to the method described hereinafter.
One day before drug administration, incubated MCF-7 cells were plated in 96-well plate in the concentration of 5×10^3 cells per well. After the 96-well plate was incubated for one day, 0.1 nM of estradiol and the test compound in the given concentration were added to each well. The plate was incubated for 7 days at 37° C. and then MTT solution (Sigma) was added to each well in the amount of 15 μl and allowed to react for 2 hours at 37° C. After the reaction was completed, the solubilizing/stopping solution (constitution: SDS, acetic acid, N,N-dimethylformamide) was added to each well in the amount of 100 μl. Then, the absorption for each well at 570 nm was measured by means of a plate reader. IC50 value for inhibiting cell growth of 50% was calculated from the results as measured and described in the following Table 2.

The test system of assay [1] is ovariectomized mice. In words: Anti-estrogenic activity (subcutaneous administration): inhibition of estradiol-stimulated uterine weight increase. The assay is classed as in vivo, mice (ICR). Particulars: s.c., 3 days; for Inhibition (%) of the increase of uterine weight by estradiol: 30 μg/mouse in peanut oil, ovariectomized ICR mice given 17β-estradiol-benzoate 0.1 μg/day; for inhibition of the increase of uterine weight by estradiol (in words): 30 μg/mouse, ovariectomized mice given 17β-estradiol. How it is done: Anti-estrogenic activity of the test compound by subcutaneous administration was determined according to the method described hereinafter. In this experiment, the compounds of Examples 1, 2, 3, 4, 5, 22, 127 and 128 were used as the test compound and the known anti-estrogenic compound ZM189154 was used as the control compound as in Experiment 1.
In this experiment, the test compound or the control compound was dissolved in peanut oil (Sigma) and injected subcutaneously for 3 days, once a day. After 24 hours from the last injection, the test animal was sacrificed and uterus was removed and weighed.

Assay [2] relates to ovariectomized mice. Put plainly: Anti-estrogenic activity (oral administration): inhibition of estradiol-stimulated uterine weight increase. The assay is classed as in vivo. Particulars: p.o., 3 days, 10 mg/kg in 5% arabic gum solution; ovariectomized ICR mice given 17β-estradiol-benzoate 0.1 μg/day. How it is done: Oral anti-estrogenic activity in vivo of the test compound was determined according to the method described hereinafter. In this experiment, the compound of Example 3, 22, 127 and 128 were used as the test compound and the known anti-estrogenic compound ZM189154 was used as the control compound as in Experiment 2.
In this experiment, the test compound or the control compound was suspended in 5% arabic gum solution and orally administered for 3 days, once a day. After 24 hours from the last administration, the test animal was sacrificed and uterus was removed and weighed.

[3] abbreviates: 7 days at 37° C., absorption at 570 nm.

As a reminder, the IC50 is the concentration that gives 50% inhibition. On to “7-hydroxy-3-(4-hydroxyphenyl)-3-methyl-4-{9-[4-(4,4,5,5,5-pentafluoropentyl)piperazinyl]nonyl}chroman [Example 1]”, for which the IC50 in the assay with MCF-7 cell lines (ATCC) (setting [3]) was determined as 60.4 nM. Moreover, in the assay with ovariectomized mice [1], the “Inhibition (%) of the increase of uterine weight by estradiol” value was found to be 27.5% and the “inhibition of the increase of uterine weight by estradiol (in words)” value is “substantially inhibit”.

For `CCCCNC(=N)CCCCCCCCCC[C@H]1c2ccc(O)cc2OC[C@@]1(C)c1ccc(O)cc1` (racemic) [Compound I of Example 2, (3RS,4RS)-7-hydroxy-4-[(11-imino-11-N-butylamino)undecyl]-3-(4-hydroxyphenyl)-3-methylchroman], the half-maximal inhibitory concentration (IC50) with MCF-7 cell lines (ATCC) (setting [3]) was determined as 67.5 nM. The “Inhibition (%) of the increase of uterine weight by estradiol” value in the assay on ovariectomized mice [1] is 30.8%.

For `CCCCN=C(CCCCCCCCCC[C@H]1c2ccc(O)cc2OC[C@@]1(C)c1ccc(O)cc1)NCCCC` (racemic) [Compound II of Example 2, (3RS,4RS)-7-hydroxy-4-[(11-N-butylimino-11-N-butylamino)undecyl]-3-(4-hydroxyphenyl)-3-methylchroman], the IC50 with MCF-7 cell lines (ATCC) (setting [3]) was found to be 1000 nM. Also, the “Inhibition (%) of the increase of uterine weight by estradiol” value in the assay with ovariectomized mice [1] is −9.3%.

Regarding `CC(C)(C)c1cc(CN2CCN(CCOc3ccc([C@@H]4c5ccc(O)cc5OC[C@@]4(C)c4ccc(O)cc4)cc3)CC2)cc(C(C)(C)C)c1` (racemic) [Example 3, (3RS,4SR)-7-hydroxy-4-{4-{2-{4-{[3,5-bis(t-butyl)phenyl]methyl}piperazinyl}ethoxy}phenyl}-3-(4-hydroxyphenyl)-3-methylchroman], the figures for the “Inhibition (%) of the increase of uterine weight by estradiol” value with ovariectomized mice [2] and in the assay on ovariectomized mice [1] were 0.6% and 11.7%, respectively. The concentration for half-maximal inhibition (IC50) with MCF-7 cell lines (ATCC) (setting [3]) was found to be 54.5 nM.

Regarding `CN(CCCCC[C@H]1c2ccc(O)cc2OC[C@@]1(C)c1ccc(O)cc1)CCCSCCCC(F)(F)C(F)(F)F` (racemic) [Example 4, (3RS,4RS)-7-hydroxy-3-(4-hydroxyphenyl)-4-{5-[N-methyl-N-3-(4,4,5,5,5-pentafluoropentylthio)propylamino]pentyl}-3-methylchroman], the “Inhibition (%) of the increase of uterine weight by estradiol” value in the assay with ovariectomized mice [1] worked out at 26.4%.

With `[O-][S+](CCCC(F)(F)C(F)(F)F)CCOCCOc1ccc(C2=C(c3ccc(O)cc3)COc3cc(O)ccc32)cc1` (stereo not drawn) [Example 5, 4-{4-{2-[2-(4,4,5,5,5-pentafluoropentylsulfinyl)ethoxy]ethoxy}phenyl}-7-hydroxy-3-(4-hydroxyphenyl)-2H-chromene], the concentration for half-maximal inhibition (IC50) in the assay with MCF-7 cell lines (ATCC) (Homo sapiens, MCF7, 168 h, 7 days at 37° C., absorption at 570 nm) was found to be 387 nM. Besides, the “Inhibition (%) of the increase of uterine weight by estradiol” value in the assay on ovariectomized mice [1] stood at 9.8%.

Consider `CC1(c2ccc(O)cc2)CSc2cc(O)ccc2C1CCCCCCCCC(CCCC(F)(F)C(F)(F)F)C(=O)O` (stereo not drawn) [Example 22, (3′RS,4′RS)-10-[7-hydroxy-3-(4-hydroxyphenyl)-3-methyltbiochroman-4-yl]-2-(4,4,5,5,5-pentafluoropentyl)decanoic acid], for which the “Inhibition (%) of the increase of uterine weight by estradiol” value in the assay with ovariectomized mice [2] is recorded as 81.3%; in the assay on ovariectomized mice [1], 51.0%. In addition, the half-inhibitory concentration (IC50) in the assay with MCF-7 cell lines (ATCC) (setting [3]) was found to be 850 nM. Further, the “inhibition of the increase of uterine weight by estradiol (in words)” value in the assay on ovariectomized mice [1] is on record as “substantially inhibit”.

Regarding `C[C@]1(c2ccc(O)cc2)CCc2cc(O)ccc2C1CCCCCCCCC[S+]([O-])CCCC(F)(F)C(F)(F)F` (stereo partly drawn) [ZM189154, reference compound], the “Inhibition (%) of the increase of uterine weight by estradiol” value was determined as 41.7% with ovariectomized mice [2] and 73.8% with ovariectomized mice [1]. For the same molecule, the half-inhibitory concentration (IC50) in the assay with MCF-7 cell lines (ATCC) (Homo sapiens, MCF7, 168 h, 7 days, control compound, (cis)) was 9.2 nM; with MCF-7 cell lines (ATCC) (Homo sapiens, MCF7, 168 h, 7 days, control compound, (trans)), 77 nM.
